These results are taken from patent publication US20030065292A1, “Ozonated medical devices and methods of using ozone to prevent complications from indwelling medical devices” (priority 2001, published 2003).

The structures appear in SMILES notation.

Experiment [1] concerns Escherichia coli strain 2131. The experiment can be described thus: Ozone killing of microorganisms in solution. The experiment is classed as cell-based. The conditions noted are these: 25° C. The procedure: A clinical isolate of Escherichia coli strain 2131 that had caused catheter-related infection was used. The organism was grown overnight in tryptic soy broth (TSB) at 37° C., then diluted to a concentration of 10^4 cfU/ml of normal saline. A 120 ml aliquot of the 10^4 cfU/ml working bacterial suspension was placed in each of two beakers at 25° C.: (1) In the experimental arm, ozone was bubbled into the bacterial suspension; (2) In the control arm, no ozone was bubbled. Four hours later, three samples of the bacterial suspension in each beaker and serial dilutions were inoculated onto blood agar plates. Colony counts were determined at 24 hours after incubation of the agar plates at 37° C. The following table summarizes the results of cultures: […]

The subject of experiment [2] is Escherichia coli strain 2131. The experiment can be described thus: Ozone killing of microorganisms on catheter surfaces. It counts as cell-based. The procedure:
A clinical isolate of Escherichia coli strain 2131 that had caused catheter-related infection was used. The organism was grown overnight in tryptic soy broth (TSB) at 37° C., then diluted to a concentration of 10^4 cfu/ml of TSB. The lumens of four 7-french, 20 -cm, triple-lumen polyurethane central venous catheters were filled with this working bacterial suspension and the catheters were then incubated at 25° C. for 4 hours. After draining the bacterial suspension from the lumens of catheters, the lumens were flushed with 1 ml of sterile normal saline. Using a closed dynamic flow system, the lumens of the four catheters were continually perfused for 4 hours at 25° C. with a recirculating total volume of 3 ml of sterile normal saline at a flow rate of 0.1 ml/minute. Ozone was continuously bubbled into the beaker containing the saline perfusing the lumens of two catheters (experimental arm), but no ozone was bubbled into the beaker containing the saline perfusing the lumens of the other two catheters (control arm). Four hours later, two 2 -cm segments from each of the four catheters (two in the experimental arm, and two in the control arm) were cultured onto blood agar plates using the sonication technique. Samples of the saline running through the experimental and control catheters were also inoculated onto blood agar plates. Colony counts were determined at 24 hours after incubation of the agar plates at 37° C. The following table summarizes the results of cultures of catheter segments: […]

`O=[O+][O-]` [ozone]: the “Number of E. coli colony forming units per ml (cfu/ml)” value in experiment [1] (experimental arm: ozone bubbled into 10^4 cfu/ml bacterial suspension in normal saline, sampled four hours later, colony counts at 24 hours) was found to be 0 cfu/ml. The “Ozone killing of E. coli in solution (result in words)” value in experiment [1] (ozone bubbled into bacterial suspension, 4 hours) is reported as “kills E. coli in solution”. Also, in experiment [2] (experimental arm: catheter lumens perfused 4 hours at 25° C. with saline continuously bubbled with ozone, sonication technique), the “Number of E. coli colony forming units cultured from 2-cm catheter segments” value came out at 0 colony forming units. The “Ozone killing of E. coli adhered to catheter surface (result in words)” value in experiment [2] (lumens perfused 4 hours with ozone-bubbled saline) is recorded as “kills E. coli that has adhered to the catheter surface”. The “Concentration of E. coli in the saline solution used to perfuse the infected lumens of catheters” value in experiment [2] (ozone-bubbled saline after 4 hours perfusion, control 42×10^2 cfu/ml) is listed as 9×10^2 cfu/ml.
